Laboratory results published in patent US20040053962A1, “Methods for inhibiting proliferation and inducing apoptosis in cancer cells” (priority 2003, published 2004).

Legend:
Type in all cases: cell-based
[1] = system: MiaPaCa-2 pancreatic cancer cell line; assay: [3H]-thymidine incorporation (DNA synthesis), MiaPaCa-2; design: effect on proliferation (thymidine incorporation): dose or concentration left out as unconfirmed
Experimental: (§1) Cell culture. The following pancreatic cancer cell lines were used: MiaPaCa-2 and PANC-1 (poorly-differentiated); Capan-1 and Capan-2 (well-differentiated); and HPAF and AsPC-1 (pleomorphic). These were purchased from American Type Culture Collection (Rockville, Md.). PANC-1 and MiaPaCa-2 were grown in DMEM media; HPAF and AsPC-1 were grown in MEM media; and Capan-1 and Capan-2 were grown in-McCoy's media. Media were supplemented with 10% FBS, and the cells were grown as monolayers in a humidified atmosphere of […] and 5% CO2 at 37° C. The cells were regularly seeded into 75 cm^2 flask with media changed every other day. For experiments, cells were grown to 80% confluence, digested with trypsin-EDTA, and plated either in 12 or 24-well plates at a concentration of 50,000/ml, as appropriate.
(§2) DNA synthesis by [^3H]-Thymidine incorporation. Cells were plated in 12 or 24-well plates. After reaching 70% confluence, they were incubated in serum-free media for 24 hours, which was then replaced with fresh serum-free media with or without the appropriate concentration of leukotriene B4 receptor antagonist LY293111 (62.5-1000 nM), LTB4 (100-400 nM), or both. After the appropriate period of culture, cellular DNA synthesis was assayed by adding 0.5 μCi/well of [^3H]-methyl-thymidine and incubating for another 2 hours. Then, the cells were washed twice with PBS, fixed with 10% trichloroacetic acid (“TCA”) for 30 minutes, and solubilized by adding 0.4 M NaOH to each well. Radioactivity, indicating incorporation of ^3H-thymidine into DNA, was measured by adding a scintillation cocktail and counting on a scintillation counter (LKB RackBeta, Wallac, Turku, Finland)

[2] = system: Bcl-2 in MCF-7 breast cancer cells; assay: Bcl-2 expression by western blotting; settings: MCF-7, LTB4 100 nM
[3] = system: HPAF pancreatic cancer cell line; assay: [3H]-thymidine incorporation (DNA synthesis), HPAF; design: effect on proliferation (thymidine incorporation): dose or concentration left out as unconfirmed
Experimental: as §1, §2

| SMILES | increase of proliferation compared with control ([1]; MiaPaCa-2 (FIG. 6A), 100 nM LTB4, 24 hours) [%] | thymidine incorporation compared with control ([1]; MiaPaCa-2, LTB4 100 nM for 72 hours) | effect on proliferation (thymidine incorporation) ([1]; MiaPaCa-2, concentration and time-dependent, P<0.0001) | Bcl-2 expression (western blot) [2] | increase of proliferation compared with control ([3]; HPAF (FIG. 6B), 100 nM LTB4, 24 hours) [%] | thymidine incorporation compared with control ([3]; HPAF, LTB4 100 nM for 72 hours) | effect on proliferation (thymidine incorporation) ([3]; HPAF, concentration and time-dependent, P<0.0001) | effect on proliferation (thymidine incorporation) ([1]; MiaPaCa-2, 48 hours, likely a toxic effect, P=0.2316) | effect on proliferation (thymidine incorporation) ([3]; HPAF, 48 hours, likely a toxic effect, P=0.2217) |
| --- | --- | --- | --- | --- | --- | --- | --- | --- | --- |
| CCCCC/C=C\C[C@@H](O)/C=C/C=C/C=C\[C@@H](O)CCCC(=O)O [LTB4, Leukotriene B4, reference compound] | 25 | more than doubled | stimulated the proliferation | increase expression | 25 | more than doubled | stimulated the proliferation |  |  |
| CCCc1c(OCCCCc2nnn[nH]2)ccc(C(C)=O)c1O [LY171883, 1-(2-hydroxy-3-propyl-4-(4-(1H-tetrazol-5-yl)butoxy)phenyl)ethanone, reference compound] |  |  |  |  |  |  |  | only affected proliferation at the highest concentration | only affected proliferation at the highest concentration |
